Measured values reported in patent US7414041B2 (Trustees Of Tufts College, priority 1991, dated 2008).
Like-named read-outs stand apart in the source and are kept apart here.

Key:
[1] = test system: E. coli Class A Tc^r (DI-299); format: cell-based
[2] = test system: E. faecalis (Tet M); conditions: E. faecalis (Class M)
[3] = test system: E. coli Tc^s (MI 300-225); experiment: susceptibility testing MIC/MLC, drug alone; format: cell-based; conditions: Tc^s
[4] = test system: E. faecalis Tc^r (L) (ATCC9790r/Tet L); format: cell-based; conditions: for MLC: E. faecalis Tet L; for MIC: Tc^r (L), 1st column
[5] = test system: E. coli Class β Tc^r (DI-209); format: cell-based
[6] = test system: S. aureus Tc^s (RN450); experiment: susceptibility testing MIC/MLC, drug alone; format: cell-based; conditions: for MLC: kills 99.9%
[7] = test system: E. faecalis Tc^r (M) (ATCC9790r/Tet M); format: cell-based; conditions: 1st column
[8] = test system: E. faecalis Tc^s (ATCC9790r); experiment: susceptibility testing MIC/MLC, drug alone; format: cell-based
[9] = test system: S. aureus Tc^r (RN4250); format: cell-based; conditions: resistant S. aureus
[10] = molecular target: T1, TET proteins responsible for tetracycline efflux (Class B tetracycline resistance determinant, strain D1-209) (Escherichia coli, UniProt P02980); experiment: biochemical; parameters: species or system E. coli
T1 construct: Everted vesicles, to which the TET proteins responsible for tetracycline efflux are attached; endogenous in cells; host or cells: E. coli strain D1-209 (everted membrane vesicles)
T1 sequence (P02980 whole entry): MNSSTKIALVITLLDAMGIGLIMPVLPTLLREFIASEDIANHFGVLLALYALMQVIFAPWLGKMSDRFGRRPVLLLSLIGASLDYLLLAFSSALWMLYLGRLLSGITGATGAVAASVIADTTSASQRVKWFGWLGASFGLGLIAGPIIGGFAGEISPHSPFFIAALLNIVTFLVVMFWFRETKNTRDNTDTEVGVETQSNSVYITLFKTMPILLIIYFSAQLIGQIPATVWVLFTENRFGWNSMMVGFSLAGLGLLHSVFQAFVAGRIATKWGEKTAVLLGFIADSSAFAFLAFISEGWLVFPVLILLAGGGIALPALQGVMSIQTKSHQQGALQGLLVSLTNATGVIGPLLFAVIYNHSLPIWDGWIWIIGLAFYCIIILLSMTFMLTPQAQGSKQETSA

Compound	MIC ([1]; 1st column)	MIC ([1]; 2nd column)	synergistic activity with tetracycline [2]	MIC ([3]; 1st column)	MIC ([3]; 2nd column)	MLC [4]	MIC [4]	MIC ([5]; 1st column)	MIC ([5]; 2nd column)	MIC [6]	MLC [6]	MIC [7]	MIC ([8]; 1st column)	MIC ([8]; 2nd column)	MLC [9]	IC50 [10]	IC50 ([10]; uptake at 2.5 minutes, about 4 μM 3H-tetracycline, read-out: IC50)
6-deoxy-13-(benzyl mercapto) tetracycline	46 ± 20 µg	160 ± 60 µg	little, if any synergistic activity	16 ± 6 µg	26 ± 6 µg	8 ± 2 µg/mL	0.76 ± 0.26 µg	30 ± 0.26 µg	60 ± 10 µg	0.2 ± 0.1 µg	10 ± 2 µg	3.6 ± 1 µg	0.6 ± 0.25 µg	8 ± 0.26 µg	–	–	–
6-deoxy-13-(cyclohexyl mercapto) tetracycline	100 ± 0.26 µg	>200 µg	little, if any synergistic activity	60 ± 10 µg	120 µg	8 ± 2 µg/mL	1.6 ± 0.6 µg	–	–	2.5 ± 1.25 µg	10 ± 5 µg	2.6 ± 0.6 µg	1.26 ± 0.26 µg	8 µg	–	–	–
6-deoxy-13-(cyclopentyl mercapto) tetracycline	40 ± 0.26 µg	60 µg	little, if any synergistic activity	20 µg	60 µg	–	1 ± 0.6 µg	60 ± 40 µg	100 ± 60 µg	1 µg	5 µg	3 ± 1 µg	1 ± 0.26 µg	10 ± 4 µg	6 ± 2 µg/mL	–	–
CCCCCCCC(=O)O[C@H]1C2C(=C(O)C3(O)C(=O)C(C(N)=O)=C(O)[C@@H](N(C)C)C13)C(=O)c1c(O)cccc1C2C (stereo partly shown) [Cmpd 4]	–	–	–	–	–	–	–	–	–	–	–	–	–	–	–	9.3 µM	–
CC1c2cccc(O)c2C(=O)C2=C(O)C3(O)C(=O)C(C(N)=O)=C(O)[C@@H](N(C)C)C3[C@@H](OC(=O)CCC(=O)O)C21 (stereo partly shown) [Cmpd 6]	–	–	–	–	–	–	–	–	–	–	–	–	–	–	–	2 µM	–
CC1c2cccc(O)c2C(=O)C2=C(O)C3(O)C(=O)C(C(N)=O)=C(O)[C@@H](N(C)C)C3[C@@H](OCCCN)C21 (stereo partly shown) [Cmpd 7]	–	–	–	–	–	–	–	–	–	–	–	–	–	–	–	–	6.4 µM
